Results published in ChEMBL document CHEMBL1134035, “Novel 5,5-disubstitutedpyrimidine-2,4,6-triones as selective MMP inhibitors” (Bioorg Med Chem Lett, 2001).

Assays:
[1] = target: 72 kDa type IV collagenase (Homo sapiens, UniProt P08253); experiment: Inhibition of Gelatinase A, matrix metalloprotease-2
[2] = target: Matrix metalloproteinase-9 (Homo sapiens, UniProt P14780); experiment: Inhibition of Gelatinase B, matrix metalloprotease-9
Matrilysin = target: T1, Matrilysin (Homo sapiens, UniProt P09237); experiment: Inhibition of matrilysin, Matrix metalloprotease-7
T1 sequence (P09237 whole entry): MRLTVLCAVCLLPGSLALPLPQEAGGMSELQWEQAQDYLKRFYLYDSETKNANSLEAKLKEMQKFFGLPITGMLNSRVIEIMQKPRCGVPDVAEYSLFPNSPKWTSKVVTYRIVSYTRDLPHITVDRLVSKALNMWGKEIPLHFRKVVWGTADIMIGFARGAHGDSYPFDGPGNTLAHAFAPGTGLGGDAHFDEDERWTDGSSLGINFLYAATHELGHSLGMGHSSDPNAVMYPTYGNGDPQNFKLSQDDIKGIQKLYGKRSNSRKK

Interstitial collagenase = target: T2, Interstitial collagenase (Homo sapiens, UniProt P03956); experiment: Inhibition of Matrix metalloprotease-1
T2 sequence (P03956 whole entry): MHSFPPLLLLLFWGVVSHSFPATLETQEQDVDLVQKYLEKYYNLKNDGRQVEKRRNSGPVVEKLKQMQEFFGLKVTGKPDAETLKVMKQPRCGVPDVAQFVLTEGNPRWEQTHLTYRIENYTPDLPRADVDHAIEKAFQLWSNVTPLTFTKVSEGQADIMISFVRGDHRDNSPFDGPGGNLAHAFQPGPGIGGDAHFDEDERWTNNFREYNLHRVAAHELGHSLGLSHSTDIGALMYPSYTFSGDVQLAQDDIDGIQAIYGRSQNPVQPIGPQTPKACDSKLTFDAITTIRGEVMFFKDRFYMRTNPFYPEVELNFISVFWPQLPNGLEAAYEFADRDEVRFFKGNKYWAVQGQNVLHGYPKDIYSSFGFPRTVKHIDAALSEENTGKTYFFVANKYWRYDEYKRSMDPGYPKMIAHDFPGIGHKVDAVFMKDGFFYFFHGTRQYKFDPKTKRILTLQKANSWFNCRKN

Stromelysin-1 = Stromelysin-1 (Homo sapiens, UniProt P08254); experiment: Inhibition of Stromelysin, matrix metalloprotease-3
Neutrophil collagenase = Neutrophil collagenase (Homo sapiens, UniProt P22894); experiment: Inhibition of human neutrophil collagenase-I, Matrix metalloprotease-8
Neutrophil collagenase, sequence (P22894 whole entry): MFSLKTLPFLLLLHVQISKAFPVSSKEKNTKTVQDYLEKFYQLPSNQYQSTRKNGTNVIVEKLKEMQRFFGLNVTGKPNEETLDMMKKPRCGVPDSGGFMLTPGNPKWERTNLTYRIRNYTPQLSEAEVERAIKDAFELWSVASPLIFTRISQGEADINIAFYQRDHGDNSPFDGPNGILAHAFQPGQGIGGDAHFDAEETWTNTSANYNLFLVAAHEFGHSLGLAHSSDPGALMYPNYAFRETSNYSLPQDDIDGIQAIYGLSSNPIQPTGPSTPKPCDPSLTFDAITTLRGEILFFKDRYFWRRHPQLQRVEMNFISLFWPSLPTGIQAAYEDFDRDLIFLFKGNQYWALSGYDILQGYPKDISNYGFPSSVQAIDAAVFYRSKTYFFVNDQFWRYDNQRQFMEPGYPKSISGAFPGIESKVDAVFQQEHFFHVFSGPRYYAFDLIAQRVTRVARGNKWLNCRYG

72 kDa type IV collagenase, sequence (P08253 whole entry): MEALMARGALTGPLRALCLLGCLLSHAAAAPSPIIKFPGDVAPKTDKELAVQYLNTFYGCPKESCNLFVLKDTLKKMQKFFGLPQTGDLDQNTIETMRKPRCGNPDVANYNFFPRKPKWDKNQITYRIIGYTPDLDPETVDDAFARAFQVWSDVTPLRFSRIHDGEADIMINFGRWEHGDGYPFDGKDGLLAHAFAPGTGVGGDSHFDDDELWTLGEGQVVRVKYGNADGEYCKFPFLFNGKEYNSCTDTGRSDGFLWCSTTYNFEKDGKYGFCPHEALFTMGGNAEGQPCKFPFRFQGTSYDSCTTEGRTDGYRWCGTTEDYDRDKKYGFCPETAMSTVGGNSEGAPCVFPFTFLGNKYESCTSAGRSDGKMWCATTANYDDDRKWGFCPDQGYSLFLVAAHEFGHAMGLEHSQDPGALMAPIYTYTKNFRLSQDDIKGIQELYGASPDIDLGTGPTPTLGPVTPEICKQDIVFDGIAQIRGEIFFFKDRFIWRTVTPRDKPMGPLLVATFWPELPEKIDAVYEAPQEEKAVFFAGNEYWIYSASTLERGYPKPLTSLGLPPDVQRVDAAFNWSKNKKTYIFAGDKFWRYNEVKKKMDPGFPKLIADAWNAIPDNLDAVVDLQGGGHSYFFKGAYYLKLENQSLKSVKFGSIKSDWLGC
Matrix metalloproteinase-9, sequence (P14780 whole entry): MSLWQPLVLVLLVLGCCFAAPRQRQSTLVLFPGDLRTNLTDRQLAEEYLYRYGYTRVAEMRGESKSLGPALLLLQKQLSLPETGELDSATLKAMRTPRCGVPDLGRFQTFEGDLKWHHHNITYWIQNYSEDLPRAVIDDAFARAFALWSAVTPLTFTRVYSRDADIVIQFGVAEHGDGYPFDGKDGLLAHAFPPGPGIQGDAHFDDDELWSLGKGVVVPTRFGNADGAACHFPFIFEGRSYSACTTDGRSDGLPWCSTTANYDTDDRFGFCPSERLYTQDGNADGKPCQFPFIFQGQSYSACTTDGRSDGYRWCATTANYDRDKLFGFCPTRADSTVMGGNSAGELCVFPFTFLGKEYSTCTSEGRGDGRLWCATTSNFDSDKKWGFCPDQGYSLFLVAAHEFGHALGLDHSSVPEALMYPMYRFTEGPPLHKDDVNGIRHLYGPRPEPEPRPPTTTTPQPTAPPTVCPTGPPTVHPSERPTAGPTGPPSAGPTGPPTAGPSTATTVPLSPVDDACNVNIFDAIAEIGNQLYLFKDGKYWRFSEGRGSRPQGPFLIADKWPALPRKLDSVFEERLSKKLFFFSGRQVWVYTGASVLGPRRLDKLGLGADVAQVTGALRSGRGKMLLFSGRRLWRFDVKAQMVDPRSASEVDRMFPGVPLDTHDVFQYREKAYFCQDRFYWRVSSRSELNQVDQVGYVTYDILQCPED
Stromelysin-1, sequence (P08254 whole entry): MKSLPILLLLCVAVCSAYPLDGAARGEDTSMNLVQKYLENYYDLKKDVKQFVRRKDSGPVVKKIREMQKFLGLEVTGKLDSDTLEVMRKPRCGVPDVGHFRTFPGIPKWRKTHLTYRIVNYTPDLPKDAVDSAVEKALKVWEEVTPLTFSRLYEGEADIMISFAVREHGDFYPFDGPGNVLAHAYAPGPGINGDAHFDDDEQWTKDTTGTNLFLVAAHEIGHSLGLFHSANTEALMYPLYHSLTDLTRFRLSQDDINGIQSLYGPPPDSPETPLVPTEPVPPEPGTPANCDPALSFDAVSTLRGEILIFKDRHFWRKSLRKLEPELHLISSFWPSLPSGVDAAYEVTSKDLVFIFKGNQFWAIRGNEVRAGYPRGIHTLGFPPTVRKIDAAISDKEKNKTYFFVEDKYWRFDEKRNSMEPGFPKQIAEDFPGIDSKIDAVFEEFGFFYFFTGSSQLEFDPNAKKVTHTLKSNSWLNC

## CCCCCCC1(c2ccccc2)C(=O)NC(=O)NC1=O
[1]
  IC50: 1300 nM
[2]
  IC50: 330 nM
Matrilysin
  IC50: > 50 µM
Interstitial collagenase
  IC50: > 2000 nM
Stromelysin-1
  IC50: 30000 nM

## O=C1NC(=O)C(CCO)(c2ccc(Oc3ccccc3)cc2)C(=O)N1
Matrilysin
  IC50: > 50 µM
Interstitial collagenase
  IC50: > 2000 nM

## CCCCCCC1(c2ccc(-c3ccccc3)cc2)C(=O)NC(=O)NC1=O
[1]
  IC50: 868 nM
[2]
  IC50: 863 nM
Matrilysin
  IC50: > 50 µM
Interstitial collagenase
  IC50: > 2000 nM

## CC1(c2ccc(Oc3ccccc3)cc2)C(=O)NC(=O)NC1=O
[1]
  IC50: 81 nM
Neutrophil collagenase
  IC50: 81 nM
Matrilysin
  IC50: > 50 µM
Interstitial collagenase
  IC50: > 2000 nM
Stromelysin-1
  IC50: 2000 nM

## O=C1NC(=O)C(c2ccc(Oc3ccccc3)cc2)C(=O)N1
[1]
  IC50: 9000 nM
[2]
  IC50: 14000 nM
Matrilysin
  IC50: > 50 µM
Interstitial collagenase
  IC50: > 2000 nM

## CCCCCCC1(c2ccc(Oc3ccccc3)cc2)C(=O)NC(=O)NC1=O
[1]
  IC50: 21 nM
[2]
  IC50: 18 nM
Neutrophil collagenase
  IC50: 130 nM
Matrilysin
  IC50: > 50 µM
Interstitial collagenase
  IC50: > 2000 nM
Stromelysin-1
  IC50: 2000 nM

## CCCCCCC1(c2ccc(-c3ccccc3)cc2)C(=O)NC(=S)NC1=O
[1]
  IC50: 13000 nM
[2]
  IC50: 12000 nM
Matrilysin
  IC50: > 50 µM
Interstitial collagenase
  IC50: > 2000 nM

## CCCCCCCCOc1ccc(CC2(C)C(=O)NC(=O)NC2=O)cc1
[1]
  IC50: 530 nM
[2]
  IC50: 164 nM
Matrilysin
  IC50: > 50 µM
Interstitial collagenase
  IC50: > 2000 nM
Stromelysin-1
  IC50: 1000 nM

## O=C1NC(=O)C(COCc2ccccc2)(c2ccc(Oc3ccccc3)cc2)C(=O)N1
[1]
  IC50: 19 nM
[2]
  IC50: 17 nM
Matrilysin
  IC50: > 50 µM
Interstitial collagenase
  IC50: > 2000 nM
Stromelysin-1
  IC50: 930 nM

## CC1(c2ccccc2)C(=O)NC(=O)NC1=O
[1]
  IC50: 50000 nM
[2]
  IC50: 11000 nM
Matrilysin
  IC50: > 50 µM
Interstitial collagenase
  IC50: > 2000 nM

## CN1C(=O)NC(=O)C(C)(c2ccc(Oc3ccccc3)cc2)C1=O (stereo not drawn)
[1]
  IC50: > 50000 nM
[2]
  IC50: > 50000 nM
Matrilysin
  IC50: > 50 µM
Interstitial collagenase
  IC50: > 2000 nM

## CCC1(c2ccc(-c3ccccc3)cc2)C(=O)NC(=O)NC1=O
[1]
  IC50: 898 nM
[2]
  IC50: 696 nM
Matrilysin
  IC50: > 50 µM
Interstitial collagenase
  IC50: > 2000 nM
Stromelysin-1
  IC50: 9000 nM
